Experimental findings from patent US8383612B2, “Use of megestrol acetate for improving heart function and the treatment of heart insufficiency” (Par Pharmaceuticals, Inc., priority 2004, dated 2013) are described below.

In assay [1] the test system is infarction-surgery rats (ligation of the left coronary artery, heart insufficiency). In words: Echocardiography, furosemide-study. The class given is in vivo, Wistar rat. How it is done: (§1) Groups A, B and C of the infarction animals received furosemide (Lasix® 250 mg ampoule, Aventis Pharma GmbH, Frankfurt am Main, Germany) starting from day 18 (±2 days) for the whole study in a concentration of 8.6 mg/100 ml in drinking water. This corresponds to an initial dosage of 10 mg/kg/d at a weight of 300 g and an amount of drinking water of 35 ml/d.
Between week 28 and 30 post surgery (corresponds to week 22 to 24 in the megestrol acetate-Study or week 25 to 27 in the diuretic study), the heart function of all rats still alive was examined by echocardiography. For this, each rat was first pre-anaesthetised using isoflurane (Curamed Pharma GmbH Karlsruhe, Germany) in a chamber of the anaesthetic unit Univentor 400 Anaesthesia Unit (Agn Tho's, Lidingö, Sweden) pre-anaesthetised and subsequently maintained by using a mask. For the echocardiography examination the thorax region was shaved and the rat was fixed in a position lying on the back. The echocardiography was performed with an Acuson-Sequoia C256 (Siemens, Germany) which was equipped with a 15 MHz sonication head suitable for rat- and mouse echocardiography. The left ventricle (LV) was adjusted in the parastemal long and short axis. […] The diastolic function was evaluated based on the LV-influx profile via the mitral valve (E/A-ratio) by means of a PW-Doppler. The measurement volume of the PW-doppler was placed at the tip of the opened mitral valve flap. The measurements were performed by an independent blinded researcher. In FIG. 1 the progression of weight for all groups is depicted.
(§2) The infarction-furosemide-group corresponds to the blinded infarction-placebo-group of the megestrol acetate-Study (here: infarction-furosemide-group). An additional infarction-surgery group received simple drinking water without furosemide and served as control group for the furosemide-study (here: infarction-placebo-group). In order to expose all animals to equal conditions, in this group the furosemide-study was gavaged unblinded with placebo. A further group is the sham-placebo-group, that corresponds to the blinded sham-placebo-group of the megestrol acetate-study (here: sham-placebo-group).

Assay [2] can be described thus: Progression of weight, furosemide-study. The format is in vivo, Wistar rat. How it is done: During the progression of both studies, the animals were weight-determined twice a week, starting from the date of surgery (laboratory balance model CS2000. Ohaus Corporation, Pine Brook, N.J., USA). The results were calculated corresponding to the post-surgical day of the respective animal.
as §1
Animals from the infarction-placebo group (without furosemide) and all sham-animals received drinking water without supplementation.
as §2
Like in the megestrol acetate-study, the weight values corresponding to the day post-surgery of the respective animal were compared, but this time the data was analysed as a change of weight starting from the beginning of therapy of the furosemide-study (18th day post-surgery=day 0 of the furosemide-study). This therefore results in a 26 days longer period of observation for the diuretic-study in comparison with the megestrol acetate-study. Furosemide was given until the end of the observation period and to removal of organs, respectively.

[3] abbreviates: infarction-furosemide-group, furosemide via drinking water, placebo in the gavage.

“Also recorded” adds a separate entry of the source.

`NS(=O)(=O)c1cc(C(=O)O)c(NCc2ccco2)cc1Cl` [furosemide]: the “effect on the echocardiographically determined heart function” value in assay [1] (infarction groups with vs. without furosemide) is recorded as “no differences; also recorded: no direct effect”. In assay [1] (setting [3]), the A was determined as 0.62 ± 0.05 m/s, the E is 0.84 ± 0.03 m/s, the “E:A” value came out at 1.61 ± 0.21 and the FS is reported as 15.1 ± 1.0 %. Also, in assay [1] (setting [3]), the IVS d was found to be 0.13 ± 0.03 cm, the LVEDD is given as 1.06 ± 0.02 cm, the LVEF was 35.5 ± 2.0 % and the LVESD is 0.90 ± 0.02 cm. The LVHW d in assay [1] (setting [3]) is 0.17 ± 0.01 cm. In assay [2] (infarction-furosemide-group), the “increase of weight over the whole period of time” value is 1.4 g/day, the “weight at the end of the observation period” value came to 583 ± 12 g and the “weight gained at the end of the observation period” value worked out at 81%. In assay [2] (infarction-furosemide-group, day 18 following surgery), the “mean weight at the beginning of the diuretic-study” value came out at 322 ± 3 g. Besides, in assay [2] (starting from day 105 after beginning of therapy, significant), the “progress of weight in comparison with the placebo-group with infarction” value is “less pronounced progress”.
